The values below come from patent US20230027361A1, “METTL3 MODULATORS” (priority 2019, published 2023).

Usually pIC50 stands for −log10 of the IC50, conventionally taken in molar units.

One test deals with METTL3/METTL14 (Homo sapiens, UniProt Q86U44). Kind of test: METTL3-14 Standard Enzyme Assay (METTL3 biochemical assay). A digest of the protocol:
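METTL3/METTL14 at 2.5 nM, preincubated 5 min with compound in 20 mM HEPES pH 7.5, 50 mM KCl, 250 μM MgCl2, 1 mM DTT, at ambient temperature. Started with 100 nM 3′-biotinylated RNA and 100 nM ³H-SAM, quenched at 30 min with 15 μM cold SAM. Methylation read by scintillation on streptavidin flashplates.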

Test [1] has as its system MOLM-13 cells. Kind of test: MOLM-13 48 Hour Cell Proliferation Assay. The note with it: Homo sapiens. It counts as cell-based. A digest of the protocol: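 MOLM-13 cells in RPMI 1640 with 10% FBS, plated overnight, then exposed 48 h at 37 °C to a 10-point, 4-fold compound dilution series (0.25% DMSO final). Viability read by CellTiter-Glo luminescence, normalized to staurosporine (100% death) and DMSO (0%); IC50 from 4-parameter logistic fit.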

The subject of test [2] is MOLM-13 cells. In words: MOLM-13 96 Hour Cell Proliferation Assay. The note with it: Homo sapiens. The format is cell-based. The procedure, abridged: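 MOLM-13 cells in RPMI 1640 with 10% FBS were plated overnight at 37 °C, then exposed to compound dilutions at 0.25% DMSO final for 96 h. Viability was read by CellTiter-Glo luminescence, normalised to staurosporine (100% death) and DMSO (0% death) controls, and IC50 was fitted by 4-parameter logistic regression.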

The mark [3] stands for this setting: read-out: METTL3 IC50; METTL3 biochemical assay.
The mark [4] stands for this setting: METTL3 biochemical assay; read-out: METTL3 IC50.

Each structure is given as a SMILES string. pIC50: −log10 of the molar value. Read-outs that look alike come from different tables or passages of the source.

Sequence of METTL3/METTL14 (Q86U44 whole entry, species assumed): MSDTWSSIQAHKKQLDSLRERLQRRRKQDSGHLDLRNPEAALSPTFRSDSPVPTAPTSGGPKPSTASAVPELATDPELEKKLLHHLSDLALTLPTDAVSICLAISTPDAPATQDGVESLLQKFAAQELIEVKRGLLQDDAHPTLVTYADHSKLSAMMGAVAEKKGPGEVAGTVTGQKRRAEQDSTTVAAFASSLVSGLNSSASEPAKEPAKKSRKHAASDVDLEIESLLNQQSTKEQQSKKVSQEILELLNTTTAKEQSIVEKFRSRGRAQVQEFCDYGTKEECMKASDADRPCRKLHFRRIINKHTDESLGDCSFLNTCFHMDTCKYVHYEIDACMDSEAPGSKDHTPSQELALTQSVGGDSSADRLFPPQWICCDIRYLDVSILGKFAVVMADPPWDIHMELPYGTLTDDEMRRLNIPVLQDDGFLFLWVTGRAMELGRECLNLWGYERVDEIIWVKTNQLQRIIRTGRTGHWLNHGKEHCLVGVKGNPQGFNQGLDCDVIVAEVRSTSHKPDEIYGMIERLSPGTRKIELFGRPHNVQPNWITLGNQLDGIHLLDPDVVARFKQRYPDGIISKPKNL
Sequence of METTL3/METTL14 (Q9HCE5 whole entry partner, species assumed): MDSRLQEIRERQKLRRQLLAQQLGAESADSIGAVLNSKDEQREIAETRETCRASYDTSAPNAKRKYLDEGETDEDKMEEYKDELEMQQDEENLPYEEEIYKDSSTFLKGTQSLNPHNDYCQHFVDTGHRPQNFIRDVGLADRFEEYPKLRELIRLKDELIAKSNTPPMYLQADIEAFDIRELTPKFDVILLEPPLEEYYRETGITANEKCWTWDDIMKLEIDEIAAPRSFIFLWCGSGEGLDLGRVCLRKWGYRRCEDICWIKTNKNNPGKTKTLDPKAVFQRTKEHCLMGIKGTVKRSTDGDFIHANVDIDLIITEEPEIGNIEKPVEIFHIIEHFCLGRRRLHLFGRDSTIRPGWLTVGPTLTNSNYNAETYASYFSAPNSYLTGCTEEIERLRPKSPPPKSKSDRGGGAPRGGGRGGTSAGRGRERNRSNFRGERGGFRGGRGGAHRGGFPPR

As for `CCNc1ccc2ccc(OC[C@H]3O[C@@H](n4cc(-c5cn(C)cn5)c5c(N)ncnc54)[C@@H](F)[C@@H]3O)cc2n1` [I-10], the pIC50 on METTL3/METTL14 (setting [3]) is over 8.00; with MOLM-13 cells [1], 5.00 to 6.00; in the test with MOLM-13 cells [2], over 6.00.

On to `CNc1ccc2ccc(OC[C@H]3O[C@@H](n4cc(-c5ccn(C)n5)c5c(N)ncnc54)[C@@H](F)[C@@H]3O)cc2n1` [I-12], for which the pIC50 at METTL3/METTL14 (setting [3]) was over 8.00; in the test on MOLM-13 cells [1] it was over 6.00; in the test with MOLM-13 cells [2] it was over 6.00.

Regarding `CNc1ccc2ccc(OC[C@H]3O[C@@H](n4cc(CC5CCCC5)c5c(N)ncnc54)[C@H](O)[C@@H]3O)cc2n1` [I-23], the pIC50 on METTL3/METTL14 (setting [4]) was over 8.00; in the test with MOLM-13 cells [1], under 5.00.

For the molecule `CNc1ccc2ccc(OC[C@H]3O[C@@H](n4cc(C5CC5)c5c(N)ncnc54)[C@@H](F)[C@@H]3O)cc2n1` [I-29], the pIC50 on METTL3/METTL14 (setting [4]) was over 8.00; in the test with MOLM-13 cells [1], over 6.00; in the test on MOLM-13 cells [2] (MOLM-13, 96 h), over 6.00.

Regarding `CNc1ccc2ccc(OC[C@H]3O[C@@H](n4cc(C5CCCC5)c5c(N)ncnc54)[C@H](O)[C@@H]3O)cc2n1` [I-33, (2R,3R,4S,5R)-2-(4-amino-5-cyclopentyl-7H-pyrrolo[2,3-d]pyrimidin-7-yl)-5-(((2-(methylamino)quinolin-7-yl)oxy)methyl)tetrahydrofuran-3,4-diol], the pIC50 at METTL3/METTL14 (setting [4]) is over 8.00; with MOLM-13 cells [1] it was 5.00 to 6.00; with MOLM-13 cells [2] (MOLM-13, 96 h), over 6.00.

`CNc1ccc2ccc(OC[C@H]3O[C@@H](n4cc(CC5CC5)c5c(N)ncnc54)[C@@H](F)[C@@H]3O)cc2n1` [I-36]: the pIC50 is over 8.00 on METTL3/METTL14 (setting [4]); 5.00 to 6.00 in the test with MOLM-13 cells [1]; over 6.00 with MOLM-13 cells [2] (MOLM-13, 96 h).

For `CNc1ccc2ccc(CC[C@H]3O[C@@H](n4cc(C5CCCC5)c5c(N)ncnc54)[C@H](O)[C@@H]3O)cc2n1` [I-39], the pIC50 on METTL3/METTL14 (setting [4]) was over 8.00; in the test with MOLM-13 cells [1], 5.00 to 6.00; with MOLM-13 cells [2] (MOLM-13, 96 h), over 6.00.

In the case of `CNc1ccc2ccc(OC[C@H]3O[C@@H](n4cc(Cl)c5c(N)ncnc54)[C@H](O)[C@@H]3O)cc2n1` [I-70], the pIC50 on METTL3/METTL14 (setting [4]) was over 8.00; with MOLM-13 cells [1], 5.00 to 6.00; in the test on MOLM-13 cells [2] (MOLM-13, 96 h), over 6.00.

As for `CNc1ccc2ccc(OC[C@H]3O[C@@H](n4cc(Br)c5c(N)ncnc54)[C@H](O)[C@@H]3O)cc2n1` [I-73], the pIC50 on METTL3/METTL14 (setting [4]) is over 8.00; with MOLM-13 cells [1], 5.00 to 6.00; with MOLM-13 cells [2] (MOLM-13, 96 h), over 6.00.

`Cn1ccc(-c2cn([C@@H]3O[C@H](COc4ccc5ccc(N6CCC6)nc5c4)[C@@H](O)[C@@H]3F)c3ncnc(N)c23)n1` [I-149]: the pIC50 on METTL3/METTL14 (setting [3]) is over 8.00; in the test on MOLM-13 cells [1], over 6.00; in the test with MOLM-13 cells [2] (MOLM-13, 96 h) it was over 6.00.
